Assay results from US12622966B2, “Compound for photothermal cancer therapy, composition including the same, and method for photothermal cancer therapy” (PUKYONG NATIONAL UNIVERSITY INDUSTRY-UNIVERSITY COOPERATION …, priority 2022, dated 2026).

Legend:
[1] = UV-Vis absorption in DMSO; format: physicochemical; conditions: for λabs, absorption wavelength: in DMSO
Method: FIG. 2 illustrates UV-Vis absorption (solid line) and fluorescence emission (dotted line) spectra of NI1 (60 μM) and NI2 (40 μM) in DMSO according to an embodiment of the present disclosure;
In the UV-Vis spectrum of FIG. 2 and Table 1, an absorption peak of NI1 has a tendency of red-shift absorption (λabs=728 nm, in DMSO) compared to NI2 (λabs=690 nm, in DMSO) in an organic solvent. […] The molar absorption coefficient (8) of NI1 is relatively lower than that of NI2, which generates a conjugate in a free pair of electrons of an —NH group due to the introduction of a phenyl group in NI2 and may reduce an ICT effect from an electron donor group to an electron acceptor group compared to NI1.

[2] = Photothermal conversion efficiency; format: physicochemical; parameters: η (THF), photothermal conversion efficiency: concentration or dose not given beside the values; conditions: for η (DMSO), photothermal conversion efficiency: in DMSO; for η (THF), photothermal conversion efficiency: in THF; for η (NPs), photothermal conversion efficiency: nanoparticles (nanoaggregates)
Method: FIGS. 3A, 3B, and 3C relate to the thermal reaction of NI2 NPs according to 691 nm laser irradiation at 1 W/cm^2 and 1.5 W/cm^2 according to an embodiment of the present disclosure. FIG. 3A illustrates temperature rise measured in NI2 NPs at various concentrations (0 for distilled water, 25, 50, 75, and 100 μM) after irradiation for 150 seconds (N=4); FIG. 3B illustrates photothermal convergence efficiency (PCE) of NI2 NPs (100 μM) in 4 ON/OFF cycles of laser irradiation (ON/OFF time=150 s/450 s; duty cycle=25%); and FIG. 3C illustrates infrared thermal images of NI2 NPs (100 μM) captured at various irradiation times (scale bar=5 mm);
FIGS. 3A, 3B and 3C show quantitative analysis results of the photothermal characteristics and photothermal conversion efficiency of NI2 nanoparticles according to various concentrations and laser irradiation times in a 691 nm laser (1 W/cm^2 and 1.5 W/cm^2) irradiation of NI2 nanoparticles. When the concentration of the NI2 solution (in D.W.) was changed from 0 to 100 μM, it could be seen that the temperature increased in proportion to the concentration when the temperature change of the NI2 solution was measured after absorption for 150 seconds. That is, in FIG. 3A, it may be seen that a temperature increase (ΔT) changes linearly after irradiation for 150 seconds (R^2=0.98 to 0.99), and the maximum temperature of the NI2 NP was 42.8±2.8° C. and 54.4±0.5° C. for 1 W/cm^2 and 1.5 W/cm^2 at 100 μM, respectively. […] In FIG. 3C, it may be seen in the captured sequential thermal images showing the “spatio-temporal distribution” in the temperature area.

| ε, molar absorption coefficient [1] | λabs, absorption wavelength [1] [nm] | η (DMSO), photothermal conversion efficiency [2] [%] | η (THF), photothermal conversion efficiency [2] [%] | η (NPs), photothermal conversion efficiency [2] [%] | SMILES |
| --- | --- | --- | --- | --- | --- |
| 12.0 ×10^3 | 728 | 50.3 | 31.4 | 58.3 | CNc1ccc(N=C2C(=C(C#N)C#N)c3ccccc3C2=C(C#N)C#N)cc1 [NI1] |
| 15.6 ×10^3 | 690 | 52.1 | 32.4 | 92.5 | N#CC(C#N)=C1C(=Nc2ccc(Nc3ccccc3)cc2)C(=C(C#N)C#N)c2ccccc21 [NI2] |
